Measurements as given in patent US20230414573A1, “SYNERGISTIC OPHTHALMOLOGICAL COMPOSITION IN A LOW-CONCENTRATION DOSE THAT IS EFFECTIVE IN THE PREVENTION, CONTROL AND ERADICATION OF PRESBYOPIA” (priority 2020, published 2023).
Several values for one entry are separate records, joined by “and”; a condition that tells them apart may be missing. Equal entries are not always repeated.

System: eyes of patients with presbyopia
Assay: Clinical trial: near vision on Rosenbaum chart with Jaeger notation
Assay type: in vivo, human
Conditions: one hour after instillation; for JAEGER- 2 (Jaeger scale, near vision): one drop, synergistic mixture in non-dominant eye, pilocarpine or brimonidine dilution in dominant eye, 11 patients, baseline 5.82; for WINNED LINES (lines gained in the reading primer with Jaeger's notation): synergistic combination in non-dominant eye, comparators in dominant eye
Experimental: A composition was prepared where patients with presbyopia symptoms were selected. This study was approved by the ethics committee of Optall Vision Eye Center in Mexico City. All patients signed and gave their consent to participate in such study.
For the study, patients with presbyopia, with a corrected visual acuity of 20/25 or better, were included. The diagnosis of presbyopia was determined without correcting near vision acuity was equal to or less than 3 on the Jaeger scale on the Rosenbaum chart improving at least 2 on the Jaeger scale with the use of at least +1.00 D. Age, gender, ocular dominance, uncorrected visual acuity (UCVA), corrected near visual acuity (BNCVA) intraocular pressure with Goldmann applanation tonometer (IOP), pupil diameter under photopic and scotopic conditions (PD), slit lamp biomicroscopic examination and a fundus examination were recorded.
The ophthalmic composition comprised a single low concentration dose of pilocarpine, brimonidine, oxymetazoline/sodium hyaluronate, bromfenac and/or at least one vasoconstrictor and at least one pharmaceutically acceptable vehicle. From said combination, one drop of the synergistic mixture was applied and instilled in the nondominant eye and one drop of pilocarpine or brimonidine dilution was alternately instilled in the dominant eye of consecutive patients. After one hour, uncorrected visual acuity (UCVA), corrected visual acuity (BCVA), uncorrected near visual acuity (UNVA), corrected near visual acuity (BCNVA), intraocular pressure (IOP), pupil diameter (PD), visual analog pain scale (VAS) was measured from 0 to 10. Hyperemia was measured from 1 to 4.
Statistical analyses were performed with SPSS using Pearson's and Spearman's correlation analysis.
The type of modern Jaeger eye chart scale used generally ranges from J10 (approximately 14 points for Times New Roman typeface) to J1 (approximately 3 points, Times New Roman typeface). The chart moves back and forth until you can read a certain font size.

Compound | JAEGER- 2 (Jaeger scale, near vision) | WINNED LINES (lines gained in the reading primer with Jaeger's notation) | WINNED LINES (lines gained in the reading primer with Jaeger's notation) (listed as brimonidine) | JAEGER- 2 (Jaeger scale, near vision) (listed as pilocarpine) | WINNED LINES (lines gained in the reading primer with Jaeger's notation) (listed as pilocarpine)
Brc1c(NC2=NCCN2)ccc2nccnc12 [Brimonidine, brimonidine] | 3.50±−1.761 and 3.5 | 2.33 | 2.33±−2.50 | – | –
CC[C@@H]1C(=O)OC[C@@H]1Cc1cncn1C [Pilocarpine, pilocarpine] | 4.2 | 1.6 | – | 4.20±−1.483 | 1.60±−089
